The subject of series [1] is weiblichen Ratten. In words: Blood-glucose-lowering effect in female rats. The settings on record: for blutzuckersenkende Wirkung: female rats, comparison of the two enantiomers. The class given is in vivo, Ratte. The source says: Die beiden Enantiomeren dieser Verbindung, nämlich (S)(+)-2-Ethoxy-4-[N-[1-(2-piperidino-phenyl)-3-methyl-1-butyl]-aminocarbonylmethyl]benzoesäure (Code-Nr.: AG-EE 623 ZD) und (R) (-)-2-Ethoxy-4-[N-[1-(2-piperidino-phenyl)-3-methyl-1-butyl]aminocarbonylmethyl]benzoesäure (Code-Nr.: AG-EE 624 ZD), wurden auf ihre blutzuckersenkende Wirkung an weiblichen Ratten geprüft.

On the set-up of series [2]: species or system Menschen. The settings on record: in vivo. As for the experimental part: Dies wirkt sich z.B. bei Applikation einer Tablette mit 2 mg AG-EE 388 ZW bzw. einer Tablette mit 1 mg AG-EE 623 ZW an 12 bzw. 6 Probanden so aus, daß die Maximal-Konzentrationen 84 ± 25 bzw. 28 ± 18 ng/ml sowie die Konzentrationen nach 4 Stunden 19 ± 8 bzw. 0,7 ± 1,0 ng/ml, nach 5 Stunden 13 ± 6 bzw. 0,3 ± 0,7 ng/ml und nach 6 Stunden 10 ± 6 bzw. 0,3 ± 0,7 ng/ml betragen.

Series [3] relates to Menschen. In words: Blood-glucose-lowering effect in human studies. The class given is in vivo. The text has this: Auf Grund dieser Ergebnisse an der Ratte erscheint für den Menschen die ausschließliche Verwendung von AG-EE 623 ZW geboten, wodurch die Dosis im Vergleich zur AG-EE 388 ZW-Dosis um 50 % reduziert werden kann. […] Darüber hinaus wurde jedoch bei den Human-Studien gefunden, daß AG-EE 623 ZW überraschende pharmakokinetische Eigenschaften aufweist, die auf Grund der AG-EE 388 ZW-Daten nicht vorhersehbar waren. AG-EE 623 ZW zeigt somit überraschende therapeutische Vorteile gegenüber dem Racemat AG-EE 388 ZW.

In series [4] the test system is Ratten. In words: Acute toxicity after a single oral dose in rats. The class given is in vivo. The settings on record: single 1000 mg/kg p.o., suspension in 1% Methylcellulose; 5 male and 5 female rats; 14 days observation.

Structures are written as SMILES.

Regarding `CCOc1cc(CC(=O)N[C@@H](CC(C)C)c2ccccc2N2CCCCC2)ccc1C(=O)O` [AG-EE 623 ZW, (S)(+)-2-Ethoxy-4-[N-[1-(2-piperidino-phenyl)-3-methyl-1-butyl]-aminocarbonylmethyl]benzoesäure], in series [1], the “blutzuckersenkende Wirkung” value is reported as “das wirksame Enantiomere”. Moreover, the “Dauer der Wirkung” value in series [1] (rat, blood-glucose-lowering effect) is over 6 Stunden. Also, in series [2], the Elimination result is “wesentlich schneller als das unwirksame Enantiomere, AG-EE 624 ZW, eliminiert” and the “Plasmaspiegel in Relation zur erzielten Blutzuckersenkung” value is reported as “wesentlich niedrigere Plasmaspiegel”. Also, the Wirkungsdauer entry in series [3] was “relativ lange Wirkungsdauer”. For the same compound, the “verstorbene Tiere” value in series [4] is on record as “kein Tier”.

As to `CCOc1cc(CC(=O)N[C@H](CC(C)C)c2ccccc2N2CCCCC2)ccc1C(=O)O` [AG-EE 624 ZW, (R) (-)-2-Ethoxy-4-[N-[1-(2-piperidino-phenyl)-3-methyl-1-butyl]aminocarbonylmethyl]benzoesäure, reference compound], the “blutzuckersenkende Wirkung” value in series [1] is on record as “das unwirksame Enantiomere”. Also, the “Plasma-Konzentrationen nach Racemat-Gabe” value in series [2] is given as “in unerwartet höheren Maximal- und Dauer-Spiegeln anwesend”.
